Test system: Sarcoma-180
Experiment: Antitumor test against subcutaneously transplanted Sarcoma-180 in ICR mice (Pharmacological Test 1)
Assay type: in vivo
Conditions: Sarcoma-180 s.c. in ICR mice, tail vein once a day for 7 consecutive days from 24 h after transplantation, tumor weight on 10th day
Method: Sarcoma-180 subcultured in ascites of ICR mice was diluted with a physiological saline and subcutaneously transplanted into the backs of ICR mice in an amount of 2 ×10^7 cells each. Twenty-four hours after the transplantation, a test compound dissolved in sterilized physiological saline was administered to the tail vein of each of the mice once a day for 7 consecutive days.
The solid tumor was isolated from under the dorsal skin of mice on the 10th day after the transplantation to measure the weight of the tumor There was determined the ratio (T/C) of the weight of tumor (T) of the test compound group to the weight of tumor (C) of the control group.

| Compound | ED50 (Mus musculus, sc, 240 h, read-out: 50% tumor inhibition dose (ED50), dose at which T/C of tumor weight is 0.5) [mg/kg] | 50% tumor inhibition dose (ED50), dose at which T/C of tumor weight is 0.5 [mg/kg] |
| --- | --- | --- |
| Cl.NCC(=O)OC[C@H]1O[C@@H](n2cc(F)c(=O)[nH]c2=O)C[C@@H]1OCc1ccc(Cl)s1 [Test Compound 1, 3'-O-(5-chloro-2-thenyl)-2'-deoxy-5-fluoro-5'-O-glycyluridine hydrochloride] | 5 |  |
| 3'-O-(5-bromo-2-thenyl)-2'-deoxy-5-fluoro-5'-O- glycyluridine hydrochloride [Test Compound 2] |  | 7 |

From patent US4992534A, “3'-O-,5'-O-derivatives of 2'-deoxy-5-fluorouridine” (Otsuka Pharmaceutical Co., Ltd., priority 1987, dated 1991)
